Converted amounts (≈) assume the structure as drawn.
What was measured:
Nannizzia gypsea [1] = test: Antifungal activity against Microsporum gypseum after 72 hrs by broth microdilution method; assay type: functional
[2] = tested on: Trichophyton mentagrophytes; test: Antifungal activity against Trichophyton mentagrophytes after 72 hrs by broth microdilution method; assay type: functional
Candida albicans [3] = test: Antifungal activity against Candida albicans after 48 hrs by broth microdilution method; assay type: functional
Candida albicans [4] = test: Fungicidal activity against Candida albicans measured after 72 hrs; assay type: functional
[5] = tested on: Trichophyton mentagrophytes; test: Fungicidal activity against Trichophyton mentagrophytes measured after 96 hrs; assay type: functional
Nannizzia gypsea [6] = test: Fungicidal activity against Microsporum gypseum measured after 96 hrs; assay type: functional
Candida albicans [7] = test: Inhibition of Candida albicans keratinase activity at 2 ppm incubated for 5 days under non-shaking condition and subsequent incubation for 5 days under shaking condition by UV-vis spectrophotometric analysis relative to control
Nannizzia gypsea [8] = test: Inhibition of Microsporum gypseum keratinase activity at 4 ppm incubated for 5 days under non-shaking condition and subsequent incubation for 5 days under shaking condition by UV-vis spectrophotometric analysis relative to control
[9] = tested on: Trichophyton mentagrophytes; test: Inhibition of Trichophyton mentagrophytes keratinase activity at 4 ppm incubated for 5 days under non-shaking condition and subsequent incubation for 5 days under shaking condition by UV-vis spectrophotometric analysis relative to control
Fungi [10] = test: Inhibition of fungal keratinase activity at 10 mg/ml relative to control
Candida albicans [11] = test: Antifungal activity against Candida albicans infected in guinea pig skin assessed as recovery from infection at 10 mg/g administered once daily via superficial route for 15 days measured after 30 days post last dose relative to control; assay type: functional
Nannizzia gypsea [12] = test: Inhibition of ergosterol biosynthesis in Microsporum gypseum at MIC by spectrophotometric method relative to control; assay type: functional
[13] = tested on: Trichophyton mentagrophytes; test: Antifungal activity against Trichophyton mentagrophytes infected in guinea pig skin assessed as recovery from infection at 10 mg/g administered once daily via superficial route for 15 days measured after 30 days post last dose relative to control; assay type: functional
[14] = tested on: Trichophyton mentagrophytes; test: Inhibition of ergosterol biosynthesis in Trichophyton mentagrophytes at MIC by spectrophotometric method relative to control; assay type: functional
Candida albicans [15] = test: Inhibition of ergosterol biosynthesis in Candida albicans at MIC by spectrophotometric method relative to control; assay type: functional
Nannizzia gypsea [16] = test: Antifungal activity against Microsporum gypseum infected in guinea pig skin assessed as recovery from infection at 10 mg/g administered once daily via superficial route for 15 days measured after 30 days post last dose relative to control; assay type: functional
Trichophyton rubrum = test: Inhibition of Trichophyton rubrum keratinase activity at 10 ug/ml incubated for 5 days under non-shaking condition and subsequent incubation for 5 days under shaking condition by UV-vis spectrophotometric analysis relative to control
Epidermophyton floccosum = test: Inhibition of Epidermophyton floccosum keratinase activity at 10 ug/ml incubated for 5 days under non-shaking condition and subsequent incubation for 5 days under shaking condition by UV-vis spectrophotometric analysis relative to control
Trichophyton terrestre = test: Inhibition of Trichophyton terrestre keratinase activity at 10 ug/ml incubated for 5 days under non-shaking condition and subsequent incubation for 5 days under shaking condition by UV-vis spectrophotometric analysis relative to control
Nannizzia gypsea [17] = test: Inhibition of Microsporum gypseum keratinase activity at 10 ug/ml incubated for 5 days under non-shaking condition and subsequent incubation for 5 days under shaking condition by UV-vis spectrophotometric analysis relative to control
Candida albicans [18] = test: Inhibition of Candida albicans keratinase activity at MIC incubated for 5 days under non-shaking condition and subsequent incubation for 5 days under shaking condition by UV-vis spectrophotometric analysis relative to control
[19] = tested on: Trichophyton mentagrophytes; test: Inhibition of Trichophyton mentagrophytes keratinase activity at MIC incubated for 5 days under non-shaking condition and subsequent incubation for 5 days under shaking condition by UV-vis spectrophotometric analysis relative to control
Nannizzia gypsea [20] = test: Inhibition of Microsporum gypseum keratinase activity at MIC incubated for 5 days under non-shaking condition and subsequent incubation for 5 days under shaking condition by UV-vis spectrophotometric analysis relative to control
Candida albicans [21] = test: Antifungal activity against Candida albicans; assay type: functional
[22] = tested on: Trichophyton mentagrophytes; test: Antifungal activity against Trichophyton mentagrophytes; assay type: functional
Candida albicans [23] = test: Inhibition of Candida albicans keratinase activity at 8 ppm incubated for 5 days under non-shaking condition and subsequent incubation for 5 days under shaking condition by UV-vis spectrophotometric analysis relative to control
Nannizzia gypsea [24] = test: Inhibition of Microsporum gypseum keratinase activity at 8 ppm incubated for 5 days under non-shaking condition and subsequent incubation for 5 days under shaking condition by UV-vis spectrophotometric analysis relative to control
[25] = tested on: Trichophyton mentagrophytes; test: Inhibition of Trichophyton mentagrophytes keratinase activity at 16 ppm incubated for 5 days under non-shaking condition and subsequent incubation for 5 days under shaking condition by UV-vis spectrophotometric analysis relative to control
Fungi [26] = test: Inhibition of fungal keratinase activity at 0.1 to 10 mg/ml relative to control

Row | Structure (SMILES) | MIC (Nannizzia gypsea [1]) | MIC [2] | MIC (Candida albicans [3]) | MFC (Candida albicans [4]) | MFC [5] | MFC (Nannizzia gypsea [6]) | further results
1 | COc1ccc(/N=N/c2sc(NN=C3CCN(C)CC3)nc2C)cc1 | 128 µg/mL (≈ 357 µM) | 128 µg/mL (≈ 357 µM) | 64 µg/mL (≈ 179 µM) | 128 µg/mL (≈ 357 µM) | > 256 µg/mL | 256 µg/mL (≈ 714 µM) | –
2 | Cc1nc(NN=C2CCN(C)CC2)sc1/N=N/c1ccccc1Cl | 64 µg/mL (≈ 176 µM) | 64 µg/mL (≈ 176 µM) | 32 µg/mL (≈ 88.2 µM) | 128 µg/mL (≈ 353 µM) | > 256 µg/mL | 256 µg/mL (≈ 705 µM) | –
3 | CN1CCC(=NNc2nc(-c3ccccc3)c(/N=N/c3ccccc3)s2)CC1 | 4 µg/mL (≈ 10.2 µM) | 4 µg/mL (≈ 10.2 µM) | 2 µg/mL (≈ 5.12 µM) | 4 µg/mL (≈ 10.2 µM) | 16 µg/mL (≈ 41 µM) | 16 µg/mL (≈ 41 µM) | inhibition (Candida albicans [7]): 77 to 94%; inhibition (Nannizzia gypsea [8]): 77 to 94%; inhibition [9]: 77 to 94%
4 | CN1CCC(=NNC2=NC(=O)/C(=N\Nc3cccc(Cl)c3)S2)CC1 | 64 µg/mL (≈ 175 µM) | 128 µg/mL (≈ 351 µM) | 32 µg/mL (≈ 87.7 µM) | 128 µg/mL (≈ 351 µM) | > 256 µg/mL | 256 µg/mL (≈ 702 µM) | –
5 | c1ccc(-c2ccc(C(c3ccccc3)n3ccnc3)cc2)cc1 (stereo not drawn) | – | – | – | – | – | – | inhibition (Fungi [10]): 50%
6 | CN1CCC(=NNC2=NC(=O)/C(=N\Nc3ccccc3)S2)CC1 | 4 µg/mL (≈ 12.1 µM) | 4 µg/mL (≈ 12.1 µM) | 2 µg/mL (≈ 6.05 µM) | 4 µg/mL (≈ 12.1 µM) | 16 µg/mL (≈ 48.4 µM) | 8 µg/mL (≈ 24.2 µM) | Activity (Candida albicans [11]): 100%; inhibition (Candida albicans [7]): 96%; inhibition (INH) (Nannizzia gypsea [12]): 86.4%; inhibition (Nannizzia gypsea [8]): 94%; inhibition [9]: 91.4%; Activity [13]: 87%; inhibition (INH) [14]: 74.3%; inhibition (INH) (Candida albicans [15]): 73.3%; Activity (Nannizzia gypsea [16]): 91%
7 | CN1CCC(=NNc2nc(-c3ccccc3)c(/N=N/c3ccc(Cl)cc3)s2)CC1 | 4 µg/mL (≈ 9.41 µM) | 8 µg/mL (≈ 18.8 µM) | 4 µg/mL (≈ 9.41 µM) | 8 µg/mL (≈ 18.8 µM) | 32 µg/mL (≈ 75.3 µM) | 16 µg/mL (≈ 37.7 µM) | –
8 | CN(C/C=C/C#CC(C)(C)C)Cc1cccc2ccccc12 | – | – | – | – | – | – | inhibition (Trichophyton rubrum): 51.7%; inhibition (Epidermophyton floccosum): 72.3%; inhibition (Trichophyton terrestre): 66%; inhibition (Nannizzia gypsea [17]): 71.9%
9 | COc1ccc(/N=N/c2sc(NN=C3CCN(C)CC3)nc2-c2ccccc2)cc1 | 4 µg/mL (≈ 9.51 µM) | 4 µg/mL (≈ 9.51 µM) | 2 µg/mL (≈ 4.76 µM) | 4 µg/mL (≈ 9.51 µM) | 32 µg/mL (≈ 76.1 µM) | 8 µg/mL (≈ 19 µM) | Activity (Candida albicans [11]): 100%; inhibition (Candida albicans [7]): 88.8 to 95%; inhibition (Nannizzia gypsea [8]): 88.8 to 95%; inhibition [9]: 88.8 to 95%; Activity [13]: 85%; Activity (Nannizzia gypsea [16]): 92%
10 | Cc1nc(NN=C2CCN(C)CC2)sc1/N=N/c1ccccc1 | 64 µg/mL (≈ 195 µM) | 64 µg/mL (≈ 195 µM) | 16 µg/mL (≈ 48.7 µM) | 128 µg/mL (≈ 390 µM) | 245 µg/mL (≈ 746 µM) | 128 µg/mL (≈ 390 µM) | inhibition (Candida albicans [18]): 33.4 to 46.3%; inhibition [19]: 33.4 to 46.3%; inhibition (Nannizzia gypsea [20]): 33.4 to 46.3%
11 | Cc1ccc(/N=N/c2sc(NN=C3CCN(C)CC3)nc2C)cc1 | 32 µg/mL (≈ 93.4 µM) | 32 µg/mL (≈ 93.4 µM) | 16 µg/mL (≈ 46.7 µM) | 64 µg/mL (≈ 187 µM) | 256 µg/mL (≈ 748 µM) | 128 µg/mL (≈ 374 µM) | –
12 | Cc1nc(NN=C2CCN(C)CC2)sc1/N=N/c1ccc([N+](=O)[O-])cc1 | 128 µg/mL (≈ 343 µM) | 128 µg/mL (≈ 343 µM) | 64 µg/mL (≈ 171 µM) | 256 µg/mL (≈ 686 µM) | > 256 µg/mL | > 256 µg/mL | inhibition (Candida albicans [18]): 10.1 to 31.4%; inhibition (INH) (Nannizzia gypsea [12]): 33.1%; inhibition (INH) [14]: 21.4%; inhibition (INH) (Candida albicans [15]): 28.5%; inhibition [19]: 10.1 to 31.4%; inhibition (Nannizzia gypsea [20]): 10.1 to 31.4%
13 | CN1CCC(=NNC2=NC(=O)/C(=N\Nc3ccc([N+](=O)[O-])cc3)S2)CC1 | 128 µg/mL (≈ 341 µM) | 128 µg/mL (≈ 341 µM) | 64 µg/mL (≈ 170 µM) | 256 µg/mL (≈ 682 µM) | > 256 µg/mL | > 256 µg/mL | –
14 | CN1CCC(=NNC2=NC(=O)/C(=N\Nc3ccc(Cl)cc3)S2)CC1 | 128 µg/mL (≈ 351 µM) | 128 µg/mL (≈ 351 µM) | 64 µg/mL (≈ 175 µM) | 128 µg/mL (≈ 351 µM) | > 256 µg/mL | 256 µg/mL (≈ 702 µM) | –
15 | Cc1ccccc1/N=N/c1sc(NN=C2CCN(C)CC2)nc1C | 32 µg/mL (≈ 93.4 µM) | 32 µg/mL (≈ 93.4 µM) | 8 µg/mL (≈ 23.4 µM) | 32 µg/mL (≈ 93.4 µM) | 128 µg/mL (≈ 374 µM) | 64 µg/mL (≈ 187 µM) | –
16 | Cc1nc(NN=C2CCN(C)CC2)sc1/N=N/c1cccc(Cl)c1 | 64 µg/mL (≈ 176 µM) | 128 µg/mL (≈ 353 µM) | 32 µg/mL (≈ 88.2 µM) | 128 µg/mL (≈ 353 µM) | > 256 µg/mL | 256 µg/mL (≈ 705 µM) | –
17 | OC(Cn1cncn1)(Cn1cncn1)c1ccc(F)cc1F [FLUCONAZOLE] | 8 µg/mL (≈ 26.1 µM) | 16 µg/mL (≈ 52.2 µM) | 8 µg/mL (≈ 26.1 µM) | 32 µg/mL (≈ 104 µM) | 64 µg/mL (≈ 209 µM) | 64 µg/mL (≈ 209 µM) | Activity (Candida albicans [11]): 97%; inhibition (Candida albicans [18]): 61.3 to 72.9%; MIC (Candida albicans [21]): 0.34 µg/mL (≈ 1.11 µM); Activity [13]: 77%; MIC [22]: 23.9 µg/mL (≈ 78 µM); inhibition [19]: 61.3 to 72.9%; Activity (Nannizzia gypsea [16]): 84%; inhibition (Nannizzia gypsea [20]): 61.3 to 72.9%
18 | Cc1nc(NN=C2CCN(C)CC2)sc1/N=N/c1ccc(Cl)cc1 | 16 µg/mL (≈ 44.1 µM) | 16 µg/mL (≈ 44.1 µM) | 16 µg/mL (≈ 44.1 µM) | 32 µg/mL (≈ 88.2 µM) | 128 µg/mL (≈ 353 µM) | 128 µg/mL (≈ 353 µM) | –
19 | CN1CCC(=NNc2nc(-c3ccccc3)c(/N=N/c3ccc([N+](=O)[O-])cc3)s2)CC1 | 8 µg/mL (≈ 18.4 µM) | 16 µg/mL (≈ 36.7 µM) | 8 µg/mL (≈ 18.4 µM) | 16 µg/mL (≈ 36.7 µM) | 32 µg/mL (≈ 73.5 µM) | 32 µg/mL (≈ 73.5 µM) | inhibition (Candida albicans [23]): 66.1 to 92.2%; inhibition (Nannizzia gypsea [24]): 66.1 to 92.2%; inhibition [25]: 66.1 to 92.2%
20 | N#C/C(=C1/SCC(c2ccccc2Cl)S1)n1ccnc1 (stereo not drawn) | – | – | – | – | – | – | inhibition (Fungi [26]): 40 to 70%
21 | Cc1ccc(/N=N/c2sc(NN=C3CCN(C)CC3)nc2-c2ccccc2)cc1 | 4 µg/mL (≈ 9.89 µM) | 4 µg/mL (≈ 9.89 µM) | 2 µg/mL (≈ 4.94 µM) | 4 µg/mL (≈ 9.89 µM) | 16 µg/mL (≈ 39.6 µM) | 8 µg/mL (≈ 19.8 µM) | –
22 | Cc1nc(NN=C2CCN(C)CC2)sc1/N=N/c1ccc(Cl)cc1Cl | 64 µg/mL (≈ 161 µM) | 64 µg/mL (≈ 161 µM) | 16 µg/mL (≈ 40.3 µM) | 128 µg/mL (≈ 322 µM) | > 256 µg/mL | 128 µg/mL (≈ 322 µM) | –

Reference: ChEMBL document CHEMBL4118157, “Efficiency of newly prepared thiazole derivatives against some cutaneous fungi” (2018)
